In patent US20250059182A1, “SOS1 INHIBITORS” (Mirati Therapeutics, Inc., priority 2021, published 2025):
Where a name gives a salt, the structure may show the parent alone. Read-outs that look alike come from different tables or passages of the source.

What was measured:
[1] = molecular target: T1, recombinant human SOS1 polypeptide (amino acids 560-1049) (Homo sapiens, UniProt Q07889); assay: HTRF displacement assay: inhibition of labeled tracer binding to SOS1; settings: Table A1, Morrison equation for competitive binding
T1 construct: corresponding to amino acids 560-1049, expressed in E. Coli; made in house; host or cells: E. coli
T1 sequence (Q07889 560-1049): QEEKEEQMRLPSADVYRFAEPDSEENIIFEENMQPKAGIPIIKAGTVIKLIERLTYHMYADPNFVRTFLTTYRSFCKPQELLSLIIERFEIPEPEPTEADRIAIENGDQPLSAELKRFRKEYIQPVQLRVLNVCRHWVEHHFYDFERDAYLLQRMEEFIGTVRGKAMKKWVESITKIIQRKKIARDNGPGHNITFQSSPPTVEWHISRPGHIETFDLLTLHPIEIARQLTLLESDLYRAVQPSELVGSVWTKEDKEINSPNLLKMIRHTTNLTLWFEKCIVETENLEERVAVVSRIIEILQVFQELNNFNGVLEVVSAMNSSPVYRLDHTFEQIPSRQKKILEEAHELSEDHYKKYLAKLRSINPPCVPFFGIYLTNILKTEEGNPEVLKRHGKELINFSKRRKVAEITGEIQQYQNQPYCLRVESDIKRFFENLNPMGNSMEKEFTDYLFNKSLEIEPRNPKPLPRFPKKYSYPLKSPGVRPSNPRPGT
Procedure: The ability of a compound of Formula (I) to bind to SOS1 was measured using a HTRF displacement assay. […] After a 1-hour incubation at room temperature, the HTRF signal was measured using Clairostar plate reader (BMG Labtech) according to the manufacturer's instructions. Excitation filter EX-TR was used, and emission 1 was detected at 650-610 nm and emission 2 detected at 620-610 nm. The HTRF ratio was calculated using the formula: [emission 1/emission 2]*10000.
Background signals were calculated from well with a 10 μM inhibitor, known to inhibit 100% at that concentration. The background subtracted signals were converted to % binding relative to DMSO controls. Data were analyzed using XLFIT software (IDBS) using a Morrison equation for competitive binding and Ki's were generated compound of Formula (I).

pERK in MKN1 cells = assay: pERK inhibition, In-Cell Western (LI-COR Odyssey), MKN1 cells; format: cell-based; settings: Homo sapiens
Outline: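 IC50 was fitted from % pERK inhibition, calculated as the GAPDH-normalised pERK signal of each well divided by the vehicle mean. Signal was imaged at 700 and 800 nm after fixation, methanol permeabilisation and dual antibody staining. Before fixation, MKN1 cells had received compound for about 0.5–1 h at 37 °C, top concentration 10 µM, nine 3-fold dilutions.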

[2] = MKN-1, Table B1, MKN1 or H358 cells (table does not say which), 0.5-1 hour incubation, read-out: IC50 (nM), pERK inhibition
[3] = MKN-1, read-out: IC50 (nM), pERK inhibition

**Q.** `Cc1c(Br)cccc1[C@@H](C)Nc1nnc(C)c2cc(F)c(N3CCC34CN(C)C4)cc12` [Example P-214, (R)-N-(1-(3-bromo-2-methylphenyl)ethyl)-6-fluoro-4-methyl-7-(6-methyl-1,6-diazaspiro[3.3]heptan-1-yl)phthalazin-1-amine] was tested. Which Ki [1] did it give?
**A.** 0.262 nM

**Q.** What about the IC50 (pERK in MKN1 cells; [2]) of the same molecule?
**A.** 156 nM

**Q.** For `CC(=O)N1CC2(CCN2c2cc3c(N[C@H](C)c4cccc(C#N)c4C)nnc(C)c3cn2)C1` [Example P-215, (R)-3-(1-((7-(6-acetyl-1,6-diazaspiro[3.3]heptan-1-yl)-4-methylpyrido[3,4-d]pyridazin-1-yl)amino)ethyl)-2-methylbenzonitrile], which Ki [1] is on record?
**A.** 2.23 nM

**Q.** And the IC50 (pERK in MKN1 cells; [2])?
**A.** 38.7 nM

**Q.** With `CC(=O)N1CC2(CCN2c2cc3c(N[C@H](C)c4cccc(C#N)c4C)nnc(C)c3cc2F)C1` [Example P-216, (R)-3-(1-((7-(6-acetyl-1,6-diazaspiro[3.3]heptan-1-yl)-6-fluoro-4-methylphthalazin-1-yl)amino)ethyl)-2-methylbenzonitrile formic acid salt] as the molecule, how does the Ki [1] read?
**A.** 1.98 nM

**Q.** What about the IC50 (pERK in MKN1 cells; [3]) of the same molecule?
**A.** 27.9 nM

**Q.** How did the Ki [1] turn out when `COCCN1CC2(CCN2c2cc3c(N[C@H](C)c4cccc(C#N)c4C)nnc(C)c3cn2)C1` [Example P-217, (R)-3-(1-((7-(6-(2-methoxyethyl)-1,6-diazaspiro[3.3]heptan-1-yl)-4-methylpyrido[3,4-d]pyridazin-1-yl)amino)ethyl)-2-methylbenzonitrile formic acid salt] was run?
**A.** 0.762 nM

**Q.** And the IC50 (pERK in MKN1 cells; [3])?
**A.** 43.1 nM

**Q.** How did the Ki [1] turn out when `COCCN1CC2(CCN2c2cc3c(N[C@H](C)c4cccc(C#N)c4C)nnc(C)c3cc2F)C1` [Example P-218, (R)-3-(1-((6-fluoro-7-(6-(2-methoxyethyl)-1,6-diazaspiro[3.3]heptan-1-yl)-4-methylphthalazin-1-yl)amino)ethyl)-2-methylbenzonitrile formic acid salt] was run?
**A.** 0.786 nM

**Q.** And the IC50 (pERK in MKN1 cells; [3])?
**A.** 60.3 nM

**Q.** Which results are given for `Cc1c(C#N)cccc1[C@@H](C)Nc1nnc(C)c2cc(F)c(N3CCC34CN(CCO)C4)cc12` [Example P-219, (R)-3-(1-((6-fluoro-7-(6-(2-hydroxyethyl)-1,6-diazaspiro[3.3]heptan-1-yl)-4-methylphthalazin-1-yl)amino)ethyl)-2-methylbenzonitrile]?
**A.** Ki [1]: 0.665 nM; IC50 (pERK in MKN1 cells; [2]): 41.1 nM

**Q.** Which results are given for `Cc1c(C#N)cccc1[C@@H](C)Nc1nnc(C)c2cc(F)c(N3CCC34CN(CCC(=O)O)C4)cc12` [Example P-220, (R)-3-(1-(4-((1-(3-cyano-2-methylphenyl)ethyl)amino)-7-fluoro-1-methylphthalazin-6-yl)-1,6-diazaspiro[3.3]heptan-6-yl)propanoic acid]?
**A.** Ki [1]: 0.678 nM; IC50 (pERK in MKN1 cells; [2]): 4110 nM

**Q.** Which Ki [1] does the source give for `CNc1cc2c(N[C@H](C)c3cccc(C#N)c3C)nnc(C)c2cc1F` [Example P-221, (R)-3-(1-((6-fluoro-4-methyl-7-(methylamino)phthalazin-1-yl)amino)ethyl)-2-methylbenzonitrile] here?
**A.** 8.75 nM

**Q.** What about the IC50 (pERK in MKN1 cells; [2]) of the same molecule?
**A.** 154 nM

**Q.** For `Cc1c(C#N)cccc1[C@@H](C)Nc1nnc(C)c2cc(F)c(N(C)C)cc12` [Example P-222, (R)-3-(1-((7-(dimethylamino)-6-fluoro-4-methylphthalazin-1-yl)amino)ethyl)-2-methylbenzonitrile], which Ki [1] is on record?
**A.** 3.97 nM

**Q.** What about the IC50 (pERK in MKN1 cells; [2]) of the same molecule?
**A.** 188 nM

**Q.** Which results are given for `Cc1c(C#N)cccc1[C@@H](C)Nc1nnc(C)c2cc(F)c(N3CCC3)cc12` [Example P-223, (R)-3-(1-((7-(azetidin-1-yl)-6-fluoro-4-methylphthalazin-1-yl)amino)ethyl)-2-methylbenzonitrile formic acid salt]?
**A.** Ki [1]: 9.3 nM; IC50 (pERK in MKN1 cells; [3]): 141 nM

**Q.** For `Cc1c(C#N)cccc1[C@@H](C)Nc1nnc(C)c2cnc(N3CCC3)cc12` [Example P-224, (R)-3-(1-((7-(azetidin-1-yl)-4-methylpyrido[3,4-d]pyridazin-1-yl)amino)ethyl)-2-methylbenzonitrile], which Ki [1] is on record?
**A.** 3.62 nM

**Q.** What about the IC50 (pERK in MKN1 cells; [2]) of the same molecule?
**A.** 41.4 nM
